Results taken from patent US20220144812A1, “QUINOLINE DERIVATIVES AND THEIR USE FOR THE TREATMENT OF CANCER” (Epizyme, Inc., priority 2019, published 2022).
pIC50: −log10 of the molar value. Read-outs that look alike come from different tables or passages of the source.

Legend:
[1] = tested on: H3K18Ac in HB-CLS-2 cells; test: H3K18AC in-cell western (ICW) assay; type: cell-based; conditions: H3K18Ac in-cell western; read-out: CREBBP ICW IC50
Procedure, shortened: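 In-cell western: after methanol fixation, blocking, overnight 4° C anti-H3K18Ac staining, then 800CW secondary plus DRAQ5 for DNA content, integrated intensities were scanned at 800 and 700 nm. Before this, compound exposure lasted 2 hr at 37° C in HB-CLS-2 cells plated 16–24 hours earlier. Values expressed as IC50 (μM).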

[2] = target: T1, CREBBP (1084-1701) (Homo sapiens, UniProt Q92793); test: Biochemical assay for CREBBP (1084-1701), SAMDI; conditions: SAMDI, read-out: CREBBP Biochemistry IC50
T1 construct: measured in the following biochemical assay using CREBBP (1084-1701); purchased
T1 sequence (Q92793 1084-1701): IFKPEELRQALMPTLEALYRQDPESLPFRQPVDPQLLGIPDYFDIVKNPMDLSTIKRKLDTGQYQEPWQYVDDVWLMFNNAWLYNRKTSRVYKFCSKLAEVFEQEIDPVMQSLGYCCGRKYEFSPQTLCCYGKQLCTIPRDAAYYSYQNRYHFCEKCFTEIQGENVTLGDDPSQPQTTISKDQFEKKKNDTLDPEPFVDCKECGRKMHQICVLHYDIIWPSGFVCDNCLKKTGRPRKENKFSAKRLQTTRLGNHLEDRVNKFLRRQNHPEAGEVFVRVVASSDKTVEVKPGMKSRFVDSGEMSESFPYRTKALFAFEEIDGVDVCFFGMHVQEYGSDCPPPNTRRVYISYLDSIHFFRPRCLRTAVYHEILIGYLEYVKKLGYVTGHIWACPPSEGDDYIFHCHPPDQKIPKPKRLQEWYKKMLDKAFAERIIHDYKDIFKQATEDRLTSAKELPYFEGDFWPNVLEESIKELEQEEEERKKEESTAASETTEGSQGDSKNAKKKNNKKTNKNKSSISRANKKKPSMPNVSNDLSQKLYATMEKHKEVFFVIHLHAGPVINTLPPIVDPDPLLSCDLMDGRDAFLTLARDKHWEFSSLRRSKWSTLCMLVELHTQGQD
Procedure, shortened: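 Acetyltransferase activity measured by SAMDI mass spectrometry after capture on biochip. Enzyme sat with compound 30 min at RT before acetyl-CoA and biotinylated H3 11-25 (K14R, K23R) peptide were added for 30 min at RT. Formic acid quench, bicarbonate neutralisation; IC50 values reported.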

[3] = tested on: 647V cells; test: High throughput proliferation (HTP) assay; type: cell-based; conditions: high throughput proliferation, read-out: CREBBP HTP IC50
Procedure, shortened: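 Proliferation IC50 (micromolar) derived from a 7-day CellTiter-Glo viable-cell readout in 647V cells exposed, in triplicate, to rising compound concentrations; cells grown in DMEM plus 15% heat-inactivated FBS at 37° C under 5% CO2.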

[4] = target: T2, EP300 (P300(1048-1664)) (Homo sapiens, UniProt Q09472); test: Biochemical assay for EP300, SAMDI; conditions: EP300, SAMDI; read-out: EP300 Biochemistry IC50
T2 construct: P300(1048-1664)
T2 sequence (Q09472 1048-1664): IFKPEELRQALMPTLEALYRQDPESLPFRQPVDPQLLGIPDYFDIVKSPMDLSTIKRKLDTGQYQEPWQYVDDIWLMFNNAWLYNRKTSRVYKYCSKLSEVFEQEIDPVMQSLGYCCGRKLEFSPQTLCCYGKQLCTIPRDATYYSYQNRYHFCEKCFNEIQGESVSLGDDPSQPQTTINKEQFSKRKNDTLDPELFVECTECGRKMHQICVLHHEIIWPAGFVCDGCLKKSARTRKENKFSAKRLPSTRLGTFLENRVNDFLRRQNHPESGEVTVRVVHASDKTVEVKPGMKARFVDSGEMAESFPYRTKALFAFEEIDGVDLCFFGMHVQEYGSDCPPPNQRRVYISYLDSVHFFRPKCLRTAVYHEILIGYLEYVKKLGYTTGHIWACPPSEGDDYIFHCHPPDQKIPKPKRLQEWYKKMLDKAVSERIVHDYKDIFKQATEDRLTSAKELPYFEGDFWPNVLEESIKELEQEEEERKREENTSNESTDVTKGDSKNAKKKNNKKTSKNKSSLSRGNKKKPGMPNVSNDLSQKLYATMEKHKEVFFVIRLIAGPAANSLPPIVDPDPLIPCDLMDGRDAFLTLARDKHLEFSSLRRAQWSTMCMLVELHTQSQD
From the text: The following example describes materials and methods relating to a biochemical assay for EP300. IC50 values (micromolar (μM)) are summarized in Table 1, Table 2, and Table 3 under the column labeled: “EP300 Biochemistry IC50 (micromolar).”

| Structure (SMILES) | pIC50 [1] | pIC50 [2] | pIC50 ([3]; Homo sapiens, 647-V) | pIC50 [4] | pIC50 [3] |
| --- | --- | --- | --- | --- | --- |
| CCn1ncc(CN(C)C(=O)c2cc(-c3ccc(NC4COC4)c(C)n3)nc3ccc(Cl)cc23)c1C [Compound 454] | 6.85 | 7.64 | 6.88 | 8.26 |  |
| CCn1ncc(CN(C)C(=O)c2nc(-c3cc4c(NC(C)=O)n[nH]c4cc3C)nc3ccc(Cl)cc23)c1C [Compound 455] | 5.92 | 6.45 | 6.26 | 6.94 |  |
| CCN(Cc1cnn(CC)c1C)C(=O)c1cc(-c2ccc(NCCNC)c(C)n2)nc2ccc(Cl)cc12 [Compound 456] | 5.85 | 6.98 | 6.20 | 6.06 |  |
| CCn1ncc(CN(C)C(=O)c2cc(-c3ccc(NCC(O)CNC)c(C)n3)nc3ccc(Cl)cc23)c1C (stereo not drawn) [Compound 457] | 6.73 | 7.81 | 7.38 | 8.24 |  |
| CCn1ncc(CN(C)C(=O)c2nc(-c3cc(C)c4c(c3)NCCN4)nc3ccc(Cl)cc23)c1C [Compound 458] | 5.98 | 5.84 | 6.28 | 5.84 |  |
| CCn1ncc(CN(C)C(=O)c2nc(-c3cc(C)c4c(N)[nH]nc4c3)nc3ccc(Cl)cc23)c1C [Compound 459] | 7.22 | 7.86 | 7.26 | 8.35 |  |
| CCn1ncc(CN(C)C(=O)c2cc(-c3ccc(NCCNC)c(C)n3)nc3ccc(C(=O)N(C)C)cc23)c1C [Compound 460] | 4.70 | ≤ 4.30 | 4.70 | ≤ 4.30 |  |
| CCn1ncc(CN(C)C(=O)c2nc(-c3ccc(OCCCNC)c(C(C)(C)C)c3)nc3ccc(Cl)cc23)c1C [Compound 462] | 4.79 | 5.01 | 5.85 | 4.80 |  |
| CCn1ncc(CN(C)C(=O)c2nc(-c3cc(C)c4c(c3)NC(=O)C4)nc3ccc(Cl)cc23)c1C [Compound 463] | 5.85 | 5.59 | 5.82 | 6.00 |  |
| CCn1ncc(CN(C)C(=O)c2nc(-c3ccc(OCCNC)c(Cl)c3)nc3ccc(CN(C)C)cc23)c1C [Compound 464] | 4.70 | 4.42 | 5.69 | 4.71 |  |
| CCn1ncc(CN(C(=O)c2cc(-c3ccc(NCCNC)c(C)n3)nc3ccc(Cl)cc23)C(C)C)c1C [Compound 465] | 5.31 | 6.44 | 5.71 | 5.83 |  |
| CCn1ncc(CN(C)C(=O)c2nc(-c3cc4c(N)noc4cc3C)nc3ccc(Cl)cc23)c1C [Compound 466] | 6.69 | 7.53 | 6.72 | 7.15 |  |
| CCn1ncc(C(=O)N(C)Cc2cc(-c3ccc(NCCNC)c(C)n3)nc3ccc(Cl)cc23)c1C [Compound 467] | 4.70 | ≤ 4.30 | 5.25 | 4.47 |  |
| CCn1ncc(CN(C)C(=O)c2nc(-c3cc(C)c4c(=O)[nH][nH]c4c3)nc3ccc(Cl)cc23)c1C [Compound 468] | 6.67 | 7.99 | 6.80 | 7.87 |  |
| CCn1ncc(CN(C)C(=O)c2nc(-c3cc(C)nc(NCCN(C)C)c3)nc3ccc(Cl)cc23)c1C [Compound 469] | 7.25 | 7.72 | 7.53 | 7.96 |  |
| CCn1ncc(CN(C)C(=O)c2nc(-c3cc(C)nc(NCCN(C)C)c3)nc3ccc(Cl)cc23)c1C [Compound 470] | 7.31 | 7.73 |  | 8.00 | 7.59 |
| CCn1ncc(CN(C)C(=O)c2cc(-c3ccc(NCCNC)c(C(F)(F)F)n3)nc3ccc(Cl)cc23)c1C [Compound 471] | 7.05 | 7.45 | 7.54 | 8.02 |  |
| CCn1ncc(CN(C)C(=O)c2cc(-c3ccc(NC4CCNC4)c(C)n3)nc3ccc(Cl)cc23)c1C (stereo not drawn) [Compound 472] | 6.88 | 7.59 | 7.32 | 8.00 |  |
